Article PMC4706877, “Antibacterial and Cytotoxic Activity of Compounds Isolated from Flourensia oolepis” (Evidence-based Complementary and Alternative Medicine : eCAM, 2015)
pIC50: −log10 of the molar value. ≈ marks a conversion by molar mass, not a printed value. Where two headings read alike, the source gives them in different places.

Columns and labels:
CCRF-CEM cells [1] = experiment: Cell cycle distribution by flow cytometry (PI); format: cell-based, human; conditions: 2 × IC50, 72 h
Protocol: Control cells were devoid of 1 and negative controls contained 1% ethanol. After treatment, cells were harvested and washed twice with ice cold PBS. Then, cells were fixed with 70% cold ethanol and kept at 4°C for 24 h. Before analysis, the cells were washed twice with PBS and stained with a solution containing propidium iodide (PI, 50 μg/mL, Sigma-Aldrich CO, USA) and RNase A (100 μg/mL, Sigma-Aldrich CO, USA) in PBS (pH 7.4) for 30 min in the dark. DNA content was evaluated by flow cytometry. The relative distribution of at least 20,000 cells was analyzed using FlowJo software version 7.6.2 (Tree Star, Inc. OR, USA).

[2] = test system: Escherichia coli (ATCC 25922); experiment: Agar dilution MIC / MBC; format: cell-based; conditions: ATCC25922, E. coli
Protocol: This isolate was identified by conventional biochemical assays and by the commercial system API20E (bioMérieux SA, Mercy L'Etoile, France). Antimicrobial resistances were determined by disk diffusion susceptibility testing (Kirby-Bauer Method) according to CLSI [15]. Bacterial suspensions were prepared on sterile saline from each organism grown overnight. Turbidity was spectrophotometrically adjusted to the McFarland 0.5 standard. Dilutions were carried out with sterile saline to give an adjusted concentration of 1.5 × 10^7 colony-forming units/mL.
Three independent experiments were carried out. […] For reading, visual observations were carried out.

[3] = test system: Lucena 1 cells (MDR, P-glycoprotein overexpressing); experiment: cells; format: cell-based, human; conditions: for pIC50: Lucena 1, MTT, 72 h, read-out: IC50 values and 95% confidence limits (lower, upper)
Protocol: (§1) The HEK293T non-tumor derived cell line and human isolated mononuclear cells (PBMC) were also tested. […] Cells were cultured at 37°C in a 5% CO2 humidified environment.
(§2) The latter concentration was then used for maintenance of the cells. Lucena 1 were continuously cultured in the presence of 60 nM DOX. Both cell lines were grown in drug-free medium 3-4 days before the experiments. Overexpression of P-glycoprotein (P-gp) in both MDR variants was verified by flow cytometry using FITC-labeled mouse anti-human P-gp (BD Pharmingen, USA). Cells were subcultured twice a week from frozen stocks and used before the 20th passage. All experiments were performed with cells in the logarithmic growth phase with cell viabilities over 90%, determined by trypan blue staining.
(§3) To investigate the cytotoxic potential of the isolated compounds, the MTT colorimetric assay was performed. […] The compounds were evaluated at a final maximum concentration of 100 μM. After 72 hours, 20 μL of 5 mg/mL solution of MTT in sterile PBS was added to each well and further incubated for 4 h. Then, the supernatants were removed and replaced with 100 μL DMSO to solubilize the resulting purple formazan crystals produced from metabolically viable cells. Absorbance was measured with an iMark micro-plate reader (Bio-Rad, USA) at 595 nm. Two wells were used for each concentration of the products assayed and three independent experiments were performed. […] The percentage of cytotoxic activity of the assayed compounds was determined by the following formula: cytotoxicity (%) = [1 − (optical density of treated cells − optical density DMSO)/(optical density of ethanol control cells − optical density DMSO)] × 100.
(§4) Data were analyzed by one-way analysis of variance (ANOVA) and means were compared using Bonferroni's comparison test, with p ≤ 0.05 considered as statistically significant.

[4] = test system: CEM/ADR5000 cells (MDR, P-glycoprotein overexpressing); experiment: cells; format: cell-based, human; conditions: for pIC50: CEM/ADR5000, MTT, 72 h, read-out: IC50 values and 95% confidence limits (lower, upper)
Protocol: as §1, §2, §3, §4

ALL cells = experiment: MTT assay, summary; format: cell-based; conditions: Homo sapiens, read-out: IC50, range
Description: (§5) CCRF-CEM acute lymphoblastic leukemia (ALL) and K562 chronic myeloid leukemia (CML) cells and their MDR P-glycoprotein overexpressing variants, CEM/ADR5000 and Lucena 1, respectively, were a generous gift from Dr. T. Efferth (Institute of Pharmacy and Biochemistry, Johannes Gutenberg University, Mainz, Germany) and Dr. V. Rumjanek (Instituto de Bioquímica Médica Leopoldo de Meis, Universidade Federal do Rio de Janeiro, Rio de Janeiro, Brazil), respectively. The HEK293T non-tumor derived cell line and human isolated mononuclear cells (PBMC) were also tested. […]
(§6) To investigate the cytotoxic potential of the isolated compounds, the MTT colorimetric assay was performed. […] The compounds were evaluated at a final maximum concentration of 100 μM. […] Absorbance was measured with an iMark micro-plate reader (Bio-Rad, USA) at 595 nm. […] The percentage of cytotoxic activity of the assayed compounds was determined by the following formula: cytotoxicity (%) = [1 − (optical density of treated cells − optical density DMSO)/(optical density of ethanol control cells − optical density DMSO)] × 100.

CML cells = experiment: MTT assay, summary; format: cell-based; conditions: Homo sapiens, read-out: IC50, range
Description: as §5, §6

K562 cells = experiment: Viable cell count by trypan blue dye exclusion; format: cell-based, human
Protocol: (§7) To confirm the effect of compound 1 on the proliferation of CCRF-CEM and K562, cell suspensions (5 × 10^4 cells/well) were treated in culture medium with different concentrations of 1 (final volume of 200 μL) and incubated in triplicate for 24, 48, and 72 h. Two independent experiments were performed. The number of viable cells at the different time points was counted by the trypan blue dye exclusion method using a hemocytometer (Neubaur, USA).

CCRF-CEM cells [5] = experiment: Viable cell count by trypan blue dye exclusion; format: cell-based, human
Protocol: as §7

O=C(/C=C/c1ccccc1)c1ccc(O)cc1O [Compound 1, 2′,4′-dihydroxychalcone]
hypodiploid sub-G1 population (CCRF-CEM cells [1]; ethanol control 1%): 10%
cells in the G2/M phase (CCRF-CEM cells [1]; ethanol control 7%): 34%
MIC ([2]; agar dilution, 24 h): 250 µg/mL (≈ 1040 µM)
MBC ([2]; value in parentheses): 500 µg/mL (≈ 2080 µM)
pIC50 ([3]; Homo sapiens, Lucena 1, 72 h): > 4.52
pIC50 [3]: 4.52
resistant index (RI) = IC50 resistant cells/IC50 sensitive cells ([3]; Lucena 1 vs K562): 1.1
pIC50 [4]: 5.00
resistant index (RI) = IC50 resistant cells/IC50 sensitive cells ([4]; CEM/ADR5000 vs CCRF-CEM): 1.5
pIC50 ([4]; Homo sapiens, ADR5000, 72 h): > 5.00
selectivity index (IC50 ratio) ([4]; IC50 HEK293T / IC50 CEM/ADR5000): 6.8
selectivity index (IC50 ratio) ([4]; IC50 PBMC / IC50 CEM/ADR5000): 8.4
pIC50 (ALL cells): 5.00 to 5.18
pIC50 (CML cells): 4.52 to 4.56
time at which a significant decrease (p < 0.05) in number of viable cells vs ethanol control was observed (K562 cells; 20.8 μM): 48 h
time at which a significant decrease (p < 0.05) in number of viable cells vs ethanol control was observed (K562 cells; 41.6 μM): 24 h
time at which a significant difference (p < 0.05) in number of viable cells vs ethanol control was observed (CCRF-CEM cells [5]; 2.6 μM): 72 h
time at which a significant difference (p < 0.05) in number of viable cells vs ethanol control was observed (CCRF-CEM cells [5]; 5.2 μM): 48 h
